{"source": "patent US11377423B2", "about": "“Inhibitors of histone deacetylase” (The Broad Institute, Inc., priority 2012, dated 2022)", "key": {"HDAC1 [1]": {"biological_target": "T1, HDAC1 (Homo sapiens (Human), UniProt Q13547)", "T1 sequence (Q13547 whole entry)": "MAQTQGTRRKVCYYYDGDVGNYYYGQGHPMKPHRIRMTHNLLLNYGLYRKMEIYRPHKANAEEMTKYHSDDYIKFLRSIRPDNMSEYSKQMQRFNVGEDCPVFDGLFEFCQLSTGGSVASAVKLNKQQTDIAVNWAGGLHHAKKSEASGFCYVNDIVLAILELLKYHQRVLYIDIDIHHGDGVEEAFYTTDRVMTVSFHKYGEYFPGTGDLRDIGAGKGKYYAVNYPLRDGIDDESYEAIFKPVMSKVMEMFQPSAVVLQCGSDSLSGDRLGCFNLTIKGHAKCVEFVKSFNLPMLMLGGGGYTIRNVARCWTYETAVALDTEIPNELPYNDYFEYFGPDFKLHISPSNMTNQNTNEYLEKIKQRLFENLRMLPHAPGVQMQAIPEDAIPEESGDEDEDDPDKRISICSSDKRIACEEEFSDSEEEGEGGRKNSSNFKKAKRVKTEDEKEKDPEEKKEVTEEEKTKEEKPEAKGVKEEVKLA", "assay": "Binding constant from HDAC1 inactivation kinetics", "method": "(§1) HDAC1 inactivation kinetic constant was determined by curve-fitting of the plot to a first-order rate equation."}, "HDAC4": {"biological_target": "HDAC4 (Homo sapiens (Human), UniProt P56524)", "sequence (P56524 whole entry)": "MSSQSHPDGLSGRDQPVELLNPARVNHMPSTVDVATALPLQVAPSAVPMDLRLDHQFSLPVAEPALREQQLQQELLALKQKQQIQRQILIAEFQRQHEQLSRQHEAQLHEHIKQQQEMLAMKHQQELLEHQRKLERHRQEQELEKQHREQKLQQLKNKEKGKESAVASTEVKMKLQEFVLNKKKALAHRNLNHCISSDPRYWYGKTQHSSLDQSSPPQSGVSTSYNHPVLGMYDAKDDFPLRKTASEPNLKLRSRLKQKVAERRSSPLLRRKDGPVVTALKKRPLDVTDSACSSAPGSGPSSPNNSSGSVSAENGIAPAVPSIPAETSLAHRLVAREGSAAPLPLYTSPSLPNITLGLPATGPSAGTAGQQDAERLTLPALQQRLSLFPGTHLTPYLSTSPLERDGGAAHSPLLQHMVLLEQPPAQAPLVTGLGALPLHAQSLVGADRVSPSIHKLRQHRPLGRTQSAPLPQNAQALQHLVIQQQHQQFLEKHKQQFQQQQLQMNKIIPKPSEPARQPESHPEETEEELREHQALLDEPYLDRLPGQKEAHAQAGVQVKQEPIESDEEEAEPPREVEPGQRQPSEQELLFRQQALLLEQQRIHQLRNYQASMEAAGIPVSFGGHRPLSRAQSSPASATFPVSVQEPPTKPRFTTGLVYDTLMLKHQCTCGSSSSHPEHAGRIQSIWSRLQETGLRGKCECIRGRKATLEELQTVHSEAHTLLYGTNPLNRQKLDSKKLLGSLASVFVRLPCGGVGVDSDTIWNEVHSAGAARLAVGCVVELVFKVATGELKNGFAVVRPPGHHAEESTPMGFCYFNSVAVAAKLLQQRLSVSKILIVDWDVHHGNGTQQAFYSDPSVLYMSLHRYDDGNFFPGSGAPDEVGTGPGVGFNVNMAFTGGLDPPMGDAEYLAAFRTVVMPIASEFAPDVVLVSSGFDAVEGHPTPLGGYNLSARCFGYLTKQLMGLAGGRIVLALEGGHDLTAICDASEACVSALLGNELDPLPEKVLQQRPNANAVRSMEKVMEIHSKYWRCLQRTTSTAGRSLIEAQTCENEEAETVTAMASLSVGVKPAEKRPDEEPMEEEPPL", "assay": "Caliper HDAC enzymatic endpoint assay, HDAC4", "type": "biochemical", "details": "Table 2C; read-out: HDAC4 IC50 after 0 hr preincubation", "method": "(§2) The Caliper HDAC Assay Buffer (acronym HAB, 1 liter) was prepared as follows:\n(§3) Substrate B was prepared as 2 mM in 100% DMSO. Its final concentration in the assay for HDACs 4, 5, 7, 8, 9 is 2 μM.\n(§4) LBH was used as quench inhibitor to stop the reaction at the end point.\nIC50 values are in micromolar."}, "HDAC7": {"biological_target": "HDAC7 (Homo sapiens (Human), UniProt Q8WUI4)", "sequence (Q8WUI4 whole entry)": "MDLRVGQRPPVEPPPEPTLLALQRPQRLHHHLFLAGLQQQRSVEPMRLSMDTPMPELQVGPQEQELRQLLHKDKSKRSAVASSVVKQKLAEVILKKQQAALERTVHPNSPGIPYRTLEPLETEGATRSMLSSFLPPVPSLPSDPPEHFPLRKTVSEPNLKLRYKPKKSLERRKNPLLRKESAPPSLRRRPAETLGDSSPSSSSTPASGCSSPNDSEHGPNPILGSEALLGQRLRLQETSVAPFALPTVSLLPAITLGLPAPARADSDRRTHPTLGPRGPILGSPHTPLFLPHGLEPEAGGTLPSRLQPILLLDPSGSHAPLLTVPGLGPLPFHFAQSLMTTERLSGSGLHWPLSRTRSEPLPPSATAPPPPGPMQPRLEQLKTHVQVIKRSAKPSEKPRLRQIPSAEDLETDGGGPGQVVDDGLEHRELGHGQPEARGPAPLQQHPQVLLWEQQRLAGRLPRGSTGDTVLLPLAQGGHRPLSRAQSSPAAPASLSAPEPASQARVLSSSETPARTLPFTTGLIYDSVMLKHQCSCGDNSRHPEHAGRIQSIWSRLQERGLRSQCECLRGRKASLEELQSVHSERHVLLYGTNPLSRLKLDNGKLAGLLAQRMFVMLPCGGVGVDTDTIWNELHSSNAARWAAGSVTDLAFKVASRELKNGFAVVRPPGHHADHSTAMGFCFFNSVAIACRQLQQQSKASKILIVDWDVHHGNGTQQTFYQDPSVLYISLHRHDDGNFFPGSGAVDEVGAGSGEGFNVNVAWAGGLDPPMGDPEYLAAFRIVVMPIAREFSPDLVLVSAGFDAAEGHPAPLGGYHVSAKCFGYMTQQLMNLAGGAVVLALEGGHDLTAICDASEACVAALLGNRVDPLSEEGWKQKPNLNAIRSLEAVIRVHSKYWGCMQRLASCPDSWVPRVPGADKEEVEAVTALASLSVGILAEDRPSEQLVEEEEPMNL", "assay": "Caliper HDAC enzymatic endpoint assay, HDAC7", "type": "biochemical", "details": "Table 2C; read-out: HDAC7 IC50 after 0 hr preincubation", "method": "as §2, §3, §4\nIC50 values are in micromolar."}, "dopaminergic signaling": {"system": "dopaminergic signaling", "assay": "Amphetamine-induced hyperactivity (AIH)", "type": "in vivo", "details": "mice, 10 mg/kg once daily, data 18-24 h after the 7th dose", "protocol": "Compounds of the invention were evaluated for their ability to influence dopaminerigic signaling according to the following procedure. Mice were dosed once daily with 10 mg/kg of compound 1. Data collected 18-24 h after the 7th dose. Amphetamine-induced hyperactivity (AIH) was examined in eight identical open-field chambers (16.5″×16″×12″; AccuScan Instruments, Columbus, Ohio). Activity was detected by infrared beam breaks and recorded automatically by VersaMax software (AccuScan). Daily sessions were automatically binned in 5 minute intervals (VersaDat; AccuSacn) for statistical analysis. AIH was run over three consecutive days as follows:\nDay 1: Habituation: Mice were placed into the open-field for 20 minutes and then removed for a saline injection. Mice were placed back into the open-field for an additional 30 minutes, at which point the mice were returned to their home cage.\nDay 2: Baseline Motor Activity: This phase was run identically to Day 1, with the exception that the second day lasted for one hour (20 minutes pre-injection; 40 minutes post-injection).\nDay 3: Amphetamine Challenge: Mice were placed in the open-field. After 20 minutes, mice were removed and challenged with amphetamine, and placed back in the open-field for 80 minutes.\n**Note: All HDAC inhibitor treatments occurred 18-25 hours prior to behavioral testing. […]"}, "INS-1E cells": {"system": "INS-1E cells", "assay": "Cytokine-induced beta-cell apoptosis, caspase-3 activity assay", "type": "cell-based, rat", "protocol": "Compounds of the invention were evaluated for their ability to suppress cytokine-induced beta-cell apoptosis and palmitate and/or glucose-induced beta-cell apoptosis by inhibition of HDAC3. Assay protocols were as follows: Cell culture and reagents. […] Recombinant IL-1β, IFN-γ, and TNF-α were purchased from R&D Systems. Palmitate, D-glucose and fatty acids-free low endotoxin BSA were purchased from Sigma. Palmitate was solubilized in 90% ethanol, heated to 60° C. and used 1:100 dilution in media. Caspase-Glo 3/7 was from Promega and 3-(4,5-dimethylthiazol-2-yl)-2,5-diphenyltetrazolium bromide (MTT) was from Calbiochem. Antibodies for HDAC1, HDAC2, HDAC3, pJNK, JNK cleaved caspase-9 and secondary horseradish-peroxidase conjugated goat anti-mouse and anti-rabbit antibodies were from Cell Signaling. Antibody for beta-actin was from Sigma and antibody against CHOP (GADD153) from Abcam. HDAC inhibitors were purchased from Selleck Chemicals or synthesized in-house. Primers were from Integrated DNA Technologies, High Capacity cDNA RT kit and SYBR green master mix were purchased from Applied Biosystems. INS-1E cells were seeded at 5,000 cells/well using a Multidrop Combi (Thermo Labsystems) in white optical 384-well plates (Corning Life Sciences). After overnight incubation, medium was removed and 50 μL RPMI containing the treated compound, 1% FBS and either a combination of cytokines (10 ng/mL IL-1β, 50 ng/mL IFN-γ, 25 ng/mL TNF-α) or 0.5 mM sodium palmitate was added to every well. After two-day treatment, medium was removed and 20 μL Caspase-Glo 3/7 reagent was added. Luminescence was measured after a two-hour incubation using an Envision plate reader (PerkinElmer). […] The rat INS-1E cell line was simultaneously treated for 48 hours with a combination of pro-inflammatory cytokines IL-1β, IFN-γ, and TNF-α, and the indicated test compounds. […] Compound 9, a negative control, had no effect. […] FIGS. 9C and 9D show a dose-response analysis of HDAC inhibition in suppression of cytokine-induced beta-cell apoptosis. […] This could translate to a larger therapeutic window. […]"}, "FGF21": {"system": "FGF21", "assay": "FGF21 mRNA expression in HepG2 cells", "type": "cell-based, human", "protocol": "Compounds of the invention were evaluated for their ability to upregulate FgF21 mRNA expression in HepG2 cells. FgF21 (Fibroblast growth factor 21) is a potent insulin sensitizer and stimulatory signal for fat oxidation. (Li, H. et al. Diabetes, 61, 797, 2012; […]., The American Journal of Clinical Nutrition, 91, […], 2010). The assay protocol was as follows. HepG2 cells were cultured in DMEM and 10% FBS. […] We treated cells with the indicated compounds for two hours, and lysed and extracted mRNA using the Rneasy kit (Qiagen). […] Quantitative PCR was performed using Taqman probes specific for human FGF21 and human actin."}, "[2]": {"system": "human megakaryocyte progenitors", "assay": "Growth of human megakaryocyte progenitors (surrogate assay for platelet depletion)", "type": "cell-based", "details": "0.1, 1, 10 and 20 μM, relative to DMSO treated cells", "protocol": "Compounds of the invention were evaluated for their effect on the growth of human megakaryocyte progenitors (surrogate assay for platelet depletion). Human CD34+ cells were grown in a collagen-based gel (Megacult-C, Stemcell Technologies). […] 100% indicates no difference in cell viability relative to the DMSO treated cells. […] This is the desired effect."}, "HDAC1 [3]": {"biological_target": "T1, HDAC1", "assay": "Kinetics of the inhibition of HDAC1", "details": "for T1/2: HDAC1 residence", "method": "as §1"}, "HDAC3": {"biological_target": "HDAC3 (Homo sapiens (Human), UniProt O15379)", "sequence (O15379 whole entry)": "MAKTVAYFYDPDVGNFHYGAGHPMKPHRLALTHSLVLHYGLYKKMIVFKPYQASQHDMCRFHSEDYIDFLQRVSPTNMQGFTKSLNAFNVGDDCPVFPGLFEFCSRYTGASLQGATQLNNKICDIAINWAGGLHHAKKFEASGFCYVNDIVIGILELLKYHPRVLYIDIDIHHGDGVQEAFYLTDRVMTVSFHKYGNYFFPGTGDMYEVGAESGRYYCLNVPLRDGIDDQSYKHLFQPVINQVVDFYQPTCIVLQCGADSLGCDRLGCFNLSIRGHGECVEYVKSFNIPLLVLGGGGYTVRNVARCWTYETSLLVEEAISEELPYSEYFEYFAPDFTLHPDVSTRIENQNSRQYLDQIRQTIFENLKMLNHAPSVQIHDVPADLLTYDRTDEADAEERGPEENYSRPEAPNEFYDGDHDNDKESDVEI", "sequence (Q9Y618 395-489 partner)": "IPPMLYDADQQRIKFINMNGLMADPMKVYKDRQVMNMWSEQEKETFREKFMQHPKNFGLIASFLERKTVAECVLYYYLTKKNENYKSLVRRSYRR", "assay": "Kinetics of the inhibition of HDAC3"}}, "note": "Values joined by “and” are separate entries in the source; they are usually repeats but may differ in a detail not shown here. Identical values can stand only once. “Also recorded” adds a separate entry of the source. Like-named read-outs stand apart in the source and are kept apart here.", "data": [{"smiles": "CC(=O)Nc1ccc(C(=O)Nc2ccc(F)cc2N)cc1", "note": "[Compound 1, 4-acetamido-N-(2-amino-4-fluorophenyl)benzamide]", "values": [{"measurement": "KI (inactivation)", "setting": "HDAC1 [1]; HDAC1, values marked *, read-out: Ki (binding constant derived from HDAC1 inactivation kinetics)", "result": 5.1, "unit": "µM"}, {"measurement": "Kd", "setting": "HDAC1 [1]; from Kinactivation vs concentration, read-out: Kd of HDAC1-Compound 1 complex", "result": 5.1, "unit": "µM"}, {"measurement": "IC50", "setting": "HDAC4", "result": "> 33", "unit": "µM"}, {"measurement": "IC50", "setting": "HDAC7", "result": "> 33", "unit": "µM"}, {"measurement": "effect on amphetamine-induced hyperactivity", "setting": "dopaminergic signaling", "result": "potentiates"}, {"measurement": "suppression of cytokine-induced beta-cell apoptosis (caspase activity)", "setting": "INS-1E cells; IL-1β, IFN-γ, TNF-α, 48 hours, 5 μM compound", "result": "as effective at suppressing cyctokine-induced beta-cell apoptosis as CI-994"}, {"measurement": "suppression of caspase-3 activity, comparison of compounds", "setting": "INS-1E cells; cytokines, 0.1-10 μM, dose dependent", "result": "more effective at suppressing caspase-3 activity"}, {"measurement": "FGF21 expression (FGF21/actin), dose response", "setting": "FGF21", "result": "dose response increases in FGF21 expression"}, {"measurement": "FGF21 mRNA expression", "setting": "FGF21; 20 μM, two hours", "result": "upregulates FGF21 mRNA expression"}, {"measurement": "effect on growth and viability of human megakaryocyte progenitor cells", "setting": "[2]", "result": "does not significantly inhibit cell growth; also recorded: no significant effect on growth and viability"}, {"measurement": "koff", "setting": "HDAC1 [3]", "result": "~0.0045", "unit": "s⁻¹"}, {"measurement": "Kon", "setting": "HDAC1 [3]; HDAC1", "result": "~0.020 min^−1, uM^−1"}, {"measurement": "koff", "setting": "HDAC1 [3]; HDAC1", "result": "~0.0045", "unit": "s⁻¹"}, {"measurement": "type of binding to HDAC1 (words)", "setting": "HDAC1 [3]; HDAC1", "result": "fast off inhibitor"}, {"measurement": "type of binding to HDAC1 (words)", "setting": "HDAC1 [3]; HDAC1, listed as compound 1", "result": "slow on/fast off rates"}, {"measurement": "T1/2", "setting": "HDAC1 [3]", "result": "~2.5", "unit": "min"}, {"measurement": "T1/2", "setting": "HDAC1 [3]; listed as compound 1", "result": 2.5, "unit": "min"}, {"measurement": "Ki", "setting": "HDAC1 [3]; Ki, HDAC1, inhibition kinetics", "result": "~14 µM and 14 µM"}, {"measurement": "koff", "setting": "HDAC3", "result": 0.000147, "unit": "s⁻¹"}, {"measurement": "Ki", "setting": "HDAC3; HDAC3", "result": 0.029, "unit": "µM"}, {"measurement": "Kon", "setting": "HDAC3; HDAC3", "result": "0.30 min^−1, uM^−1 and 0.3 min^−1, uM^−1"}, {"measurement": "koff", "setting": "HDAC3; HDAC3", "result": 0.000147, "unit": "s⁻¹"}, {"measurement": "type of binding to HDAC3 (words)", "setting": "HDAC3; HDAC3", "result": "slow, tight-binding inhibitor"}, {"measurement": "type of binding to HDAC3 (words)", "setting": "HDAC3; HDAC3, listed as compound 1", "result": "fast on/slow off binding"}, {"measurement": "T1/2", "setting": "HDAC3; HDAC3 residence", "result": 79, "unit": "min"}, {"measurement": "binding selectivity (Ki) for HDAC3 versus HDAC1", "setting": "HDAC3; thermodynamic (Ki)", "result": 175, "unit": "fold"}, {"measurement": "binding selectivity (Ki) for HDAC3 versus HDAC2", "setting": "HDAC3; thermodynamic (Ki)", "result": 217, "unit": "fold"}]}]}
